The results in this text go back to paper PMC10213791 (Acta Pharmaceutica Sinica. B, 2022).

In one assay the target is T1, peroxiredoxin 3 (PRDX3) (Homo sapiens, UniProt P30048).
T1 sequence (P30048 62-256): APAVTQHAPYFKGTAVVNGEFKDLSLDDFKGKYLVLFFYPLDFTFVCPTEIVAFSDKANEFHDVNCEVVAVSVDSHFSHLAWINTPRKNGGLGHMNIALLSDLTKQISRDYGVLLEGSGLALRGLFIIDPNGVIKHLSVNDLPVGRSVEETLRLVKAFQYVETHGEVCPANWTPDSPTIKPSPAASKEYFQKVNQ
Nature of the assay: SPR. The format is binding.

Assay [1] concerns the target T2, vacuolar protein sorting 4 homolog B (VPS4B) (Homo sapiens, UniProt O75351).
T2 sequence (O75351 1-444): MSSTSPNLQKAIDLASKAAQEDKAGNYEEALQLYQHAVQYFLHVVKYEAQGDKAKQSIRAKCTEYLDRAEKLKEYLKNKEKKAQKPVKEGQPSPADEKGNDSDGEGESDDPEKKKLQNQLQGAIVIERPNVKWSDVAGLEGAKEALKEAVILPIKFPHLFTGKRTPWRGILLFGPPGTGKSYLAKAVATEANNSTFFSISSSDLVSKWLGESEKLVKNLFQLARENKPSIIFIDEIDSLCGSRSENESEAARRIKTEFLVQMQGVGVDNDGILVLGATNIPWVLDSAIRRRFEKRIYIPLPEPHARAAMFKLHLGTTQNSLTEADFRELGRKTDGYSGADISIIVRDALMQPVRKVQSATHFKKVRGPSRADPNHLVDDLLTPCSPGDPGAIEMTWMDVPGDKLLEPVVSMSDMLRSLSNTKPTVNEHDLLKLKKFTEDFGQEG
Nature of the assay: SPR. The assay is classed as binding.

For assay [2], the target named is T3, eukaryotic translation elongation factor 1 alpha 1 (eEF1A1) (Homo sapiens, UniProt P68104).
T3 sequence (P68104 2-462): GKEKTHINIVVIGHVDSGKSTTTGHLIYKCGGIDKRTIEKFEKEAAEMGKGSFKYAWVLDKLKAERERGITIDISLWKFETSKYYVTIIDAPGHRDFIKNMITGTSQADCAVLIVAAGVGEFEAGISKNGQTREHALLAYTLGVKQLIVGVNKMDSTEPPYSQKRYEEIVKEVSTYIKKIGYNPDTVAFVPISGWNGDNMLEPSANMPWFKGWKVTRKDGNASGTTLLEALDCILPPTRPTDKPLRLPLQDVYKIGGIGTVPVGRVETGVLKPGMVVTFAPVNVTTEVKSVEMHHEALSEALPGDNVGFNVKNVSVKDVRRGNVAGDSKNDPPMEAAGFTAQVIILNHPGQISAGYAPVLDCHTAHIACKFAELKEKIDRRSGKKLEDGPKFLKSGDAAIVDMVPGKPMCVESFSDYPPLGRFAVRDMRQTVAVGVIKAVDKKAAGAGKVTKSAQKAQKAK
Nature of the assay: SPR. The format is binding.

The next assay concerns the target EIF2AK2 (Homo sapiens, UniProt P19525). Nature of the assay: biochemical.

Sequence of EIF2AK2 (P19525 2-551): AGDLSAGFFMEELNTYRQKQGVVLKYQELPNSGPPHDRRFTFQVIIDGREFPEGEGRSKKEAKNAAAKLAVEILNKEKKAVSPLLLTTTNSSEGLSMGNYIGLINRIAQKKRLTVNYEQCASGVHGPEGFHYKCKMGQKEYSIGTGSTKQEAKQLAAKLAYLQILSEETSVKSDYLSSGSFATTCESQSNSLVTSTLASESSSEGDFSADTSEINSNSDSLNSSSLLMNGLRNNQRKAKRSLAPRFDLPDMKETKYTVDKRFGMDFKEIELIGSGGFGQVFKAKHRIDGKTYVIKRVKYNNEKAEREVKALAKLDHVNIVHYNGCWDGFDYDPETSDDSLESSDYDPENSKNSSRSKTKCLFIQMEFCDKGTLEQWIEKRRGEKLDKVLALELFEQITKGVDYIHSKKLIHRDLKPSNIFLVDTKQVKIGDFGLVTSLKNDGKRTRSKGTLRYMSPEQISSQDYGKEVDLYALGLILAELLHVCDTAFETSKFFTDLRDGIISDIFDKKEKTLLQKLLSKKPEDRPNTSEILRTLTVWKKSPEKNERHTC

Consider `COc1ccc2cc3[n+](cc2c1OC)CCc1cc2c(cc1-3)OCO2` [BBR, berberine], for which the Kd worked out at 23.7 µM on peroxiredoxin 3 (PRDX3), 16.8 µM in assay [1] and 13.4 µM in assay [2].

Consider `O=C1Nc2ccc3ncsc3c2/C1=C/c1c[nH]cn1` [C16], for which, on EIF2AK2, the IC50 came to 1.01 µM.

As usually defined, the Kd is the free concentration of one partner at which half of the binding sites on the other are occupied at equilibrium, for simple one-to-one binding. Read a low Kd as tighter binding. For orientation: IC50 means the concentration that inhibits the measured activity by half. A lower IC50 goes with higher potency.
